Converted amounts (≈) assume the structure as drawn. Where a SMILES comes first, the peptide text is derived from it. Bridges are numbered along the chain shown (N, C = ends). [ ]: non-standard residue; d: D form. The star is where a group is joined. Benzoyl(3-Ph) = O=C(c1cccc(-c2ccccc2)c1)*; X2 = CCCCCOc1cccc(C(=O)*)c1; dOrn = NCCC[C@@H](N)C(=O)O; hSer = N[C@@H](CCO)C(=O)O; Octanoyl = CCCCCCCC(=O)*; Dab = NCC[C@H](N)C(=O)O
Columns and labels:
[1] = system: A. baumannii ATCC 19606; experiment: microbe, parasite or virus in culture; conditions: ATCC 19606, 18 h
Procedure: (§1) All compounds synthesised in this study were assessed for their minimum inhibitory concentrations (MIC, mg/L) by broth microdilution assay against five antibiotic-sensitive and resistant ATCC reference strains covering the Gram-negative ESKAPE pathogens (Escherichia coli, Klebsiella pneumoniae, A. baumannii, and P. aeruginosa) (Table 1, Table 2 and Table 3). Staphylococcus aureus was also included as a representative Gram-positive bacterial strain. […] Polymyxin B 1, colistin 2, vancomycin and gentamicin were used as positive inhibitor comparator compounds. Compounds were counter-screened against human proximal tubular epithelial cells (HK-2), using LDH release as a general indicator of cellular toxicity.

[2] = system: E. coli ATCC 25922; experiment: microbe, parasite or virus in culture; conditions: ATCC 25922, 18 h
Procedure: as §1

[3] = system: K. pneumoniae ATCC 13833; experiment: microbe, parasite or virus in culture; conditions: ATCC 13833, 18 h
Procedure: as §1

[4] = system: K. pneumoniae ATCC 700603; experiment: microbe, parasite or virus in culture; conditions: ATCC 700603, 18 h
Procedure: as §1

[5] = system: K. pneumoniae BAA 2146; experiment: microbe, parasite or virus in culture; conditions: BAA 2146, 18 h
Procedure: as §1

[6] = system: P. aeruginosa ATTC 27853; experiment: microbe, parasite or virus in culture; conditions: ATTC 27853, 18 h
Procedure: as §1

[7] = system: S. aureus ATCC 25923; experiment: microbe, parasite or virus in culture; conditions: ATCC 25923, 18 h
Procedure: as §1

[8] = in vitro; conditions: human
Procedure: as §1
Cytotoxicity to human kidney proximal tubular epithelial cell line, HK-2 (ATCC CRL-2190, sourced from ATCC; Manassas, VA, USA) was determined using the LDH assay as previously described. In brief, HK-2 cells were seeded as 2000 cells/well in black-walled clear bottom 384-well tissue culture treated plates (Corning, catalogue No. 3712) in DMEM/F12 medium (Gibco® 10565-042) containing 10% of Fetal Bovine Serum (FBS, Gibco® 10099-141) and incubated for 24 h at 37 °C, 5% CO2. Compounds were then added into each well with a concentration series from 300 µM to 2.3 µM in 2-fold dilutions. Colistin and polymyxin B were used as controls and tested at a final concentration range of 1 mM to 7.8 µM. The cells were incubated with the compounds for 24 h at 37 °C, 5% CO2. After the incubation, 5 µL of culture medium was added to 45 µL of LDH assay buffer (Biovision, K313-500) and incubated for 30 min at room temperature. The absorbance (ABS) was then read at 450 nm using a Polar Star Omega plate reader. The data was analysed by Prism 6 software (GraphPad Software, La Jolla, CA, USA). Results were calculated using the following equation: cytotoxicity %= (ABSsamples − ABSuntreated/ABS1%Triton X-100 − ABSuntreated) × 100.

SMILES	MIC A. baumannii ATCC 19606 [1]	MIC E. coli ATCC 25922 [2]	MIC K. pneumoniae ATCC 13833 [3]	MIC K. pneumoniae ATCC 700603 [4]	MIC K. pneumoniae BAA 2146 [5]	MIC P. aeruginosa ATTC 27853 [6]	MIC S. aureus ATCC 25923 [7]	CC50 at 24 h [8]
CCCCCCCC(=O)N[C@H](C(=O)NCC(=O)N[C@H]1CCNC(=O)[C@H]([C@@H](C)O)NC(=O)[C@H](CCN)NC(=O)[C@H](CCN)NC(=O)[C@H](CC(C)C)NC(=O)[C@@H](Cc2ccccc2)NC(=O)[C@H](CCN)NC1=O)[C@@H](C)O [Compound 49] (Octanoyl-TG[Dab][Dab][dF]L[Dab][Dab]T; lactam 3-C)	>32 µg/mL	4 µg/mL (≈ 3.82 µM)	>32 µg/mL	>32 µg/mL	>32 µg/mL	>32 µg/mL	>32 µg/mL	163 µM
CCCCCCCC(=O)N[C@H](C(=O)N[C@@H](CCO)C(=O)N[C@H]1CCNC(=O)[C@H]([C@@H](C)O)NC(=O)[C@H](CCN)NC(=O)[C@H](CCN)NC(=O)[C@H](CC(C)C)NC(=O)[C@@H](Cc2ccccc2)NC(=O)[C@H](CCN)NC1=O)[C@@H](C)O [Compound 37] (Octanoyl-T[hSer][Dab][Dab][dF]L[Dab][Dab]T; lactam 3-C)	>32 µg/mL	16 µg/mL (≈ 14.7 µM)	>32 µg/mL	>32 µg/mL	>32 µg/mL	>32 µg/mL	>32 µg/mL	271 µM
CCCCCCCC(=O)N[C@H](C(=O)N[C@H](CCCN)C(=O)N[C@H]1CCNC(=O)[C@H]([C@@H](C)O)NC(=O)[C@H](CCN)NC(=O)[C@H](CCN)NC(=O)[C@H](CC(C)C)NC(=O)[C@@H](Cc2ccccc2)NC(=O)[C@H](CCN)NC1=O)[C@@H](C)O [Compound 41] (Octanoyl-T[dOrn][Dab][Dab][dF]L[Dab][Dab]T; lactam 3-C)	16 µg/mL (≈ 14.5 µM)	1 µg/mL (≈ 0.906 µM)	32 µg/mL (≈ 29 µM)	4 µg/mL (≈ 3.63 µM)	1 µg/mL (≈ 0.906 µM)	4 µg/mL (≈ 3.63 µM)	>32 µg/mL	> 300 µM
CCCCCOc1cccc(C(=O)N[C@H](C(=O)N[C@@H](CCN)C(=O)N[C@H]2CCNC(=O)[C@H]([C@@H](C)O)NC(=O)[C@H](CCN)NC(=O)[C@H](CCN)NC(=O)[C@H](CC(C)C)NC(=O)[C@@H](Cc3ccccc3)NC(=O)[C@H](CCN)NC2=O)[C@@H](C)O)c1 [Compound 11] (X2-T[Dab][Dab][Dab][dF]L[Dab][Dab]T; lactam 3-C)	>32 µg/mL	8 µg/mL (≈ 6.94 µM)	>32 µg/mL	32 µg/mL (≈ 27.7 µM)	8 µg/mL (≈ 6.94 µM)	2 µg/mL (≈ 1.73 µM)	>32 µg/mL	93 µM
CCCCCCCC(=O)N[C@H](C(=O)N[C@@H](CCCNC(=N)N)C(=O)N[C@H]1CCNC(=O)[C@H]([C@@H](C)O)NC(=O)[C@H](CCN)NC(=O)[C@H](CCN)NC(=O)[C@H](CC(C)C)NC(=O)[C@@H](Cc2ccccc2)NC(=O)[C@H](CCN)NC1=O)[C@@H](C)O [Compound 45] (Octanoyl-TR[Dab][Dab][dF]L[Dab][Dab]T; lactam 3-C)	32 µg/mL (≈ 27.9 µM)	2 µg/mL (≈ 1.75 µM)	>32 µg/mL	8 µg/mL (≈ 6.98 µM)	16 µg/mL (≈ 14 µM)	4 µg/mL (≈ 3.49 µM)	>32 µg/mL	> 300 µM
CCCCCCCC(=O)N[C@H](C(=O)N[C@H](CO)C(=O)N[C@H]1CCNC(=O)[C@H]([C@@H](C)O)NC(=O)[C@H](CCN)NC(=O)[C@H](CCN)NC(=O)[C@H](CC(C)C)NC(=O)[C@@H](Cc2ccccc2)NC(=O)[C@H](CCN)NC1=O)[C@@H](C)O [Compound 36] (Octanoyl-T[dS][Dab][Dab][dF]L[Dab][Dab]T; lactam 3-C)	32 µg/mL (≈ 29.7 µM)	4 µg/mL (≈ 3.72 µM)	>32 µg/mL	>32 µg/mL	16 µg/mL (≈ 14.9 µM)	16 µg/mL (≈ 14.9 µM)	>32 µg/mL	213 µM
CCCCCCCC(=O)N[C@H](C(=O)N[C@@H](CCN)C(=O)N[C@H]1CCCCNC(=O)[C@H]([C@@H](C)O)NC(=O)[C@H](CCN)NC(=O)[C@H](CCN)NC(=O)[C@H](CC(C)C)NC(=O)[C@@H](Cc2ccccc2)NC(=O)[C@H](CCN)NC1=O)[C@@H](C)O [Compound 18] (Octanoyl-T[Dab]K[Dab][dF]L[Dab][Dab]T; lactam 3-C)	>32 µg/mL	16 µg/mL (≈ 14.3 µM)	>32 µg/mL	>32 µg/mL	>32 µg/mL	16 µg/mL (≈ 14.3 µM)	>32 µg/mL	88 µM
CC(C)C[C@@H]1NC(=O)[C@@H](Cc2ccccc2)NC(=O)[C@H](CCN)NC(=O)[C@@H](NC(=O)[C@H](CCN)NC(=O)[C@@H](NC(=O)c2cccc(-c3ccccc3)c2)[C@@H](C)O)CCNC(=O)[C@H]([C@@H](C)O)NC(=O)[C@H](CCN)NC(=O)[C@H](CCN)NC1=O [Compound 14] ({Benzoyl(3-Ph)}-T[Dab][Dab][Dab][dF]L[Dab][Dab]T; lactam 3-C)	>32 µg/mL	8 µg/mL (≈ 7 µM)	>32 µg/mL	32 µg/mL (≈ 28 µM)	16 µg/mL (≈ 14 µM)	2 µg/mL (≈ 1.75 µM)	>32 µg/mL	182 µM
CCCCCCCC(=O)N[C@H](C(=O)N[C@@H](Cc1c[nH]cn1)C(=O)N[C@H]1CCNC(=O)[C@H]([C@@H](C)O)NC(=O)[C@H](CCN)NC(=O)[C@H](CCN)NC(=O)[C@H](CC(C)C)NC(=O)[C@@H](Cc2ccccc2)NC(=O)[C@H](CCN)NC1=O)[C@@H](C)O [Compound 47] (Octanoyl-TH[Dab][Dab][dF]L[Dab][Dab]T; lactam 3-C)	>32 µg/mL	4 µg/mL (≈ 3.55 µM)	>32 µg/mL	32 µg/mL (≈ 28.4 µM)	16 µg/mL (≈ 14.2 µM)	16 µg/mL (≈ 14.2 µM)	>32 µg/mL	> 300 µM
CCCCCCCC(=O)N[C@H](C(=O)N[C@@H](Cc1c[nH]c2ccccc12)C(=O)N[C@H]1CCNC(=O)[C@H]([C@@H](C)O)NC(=O)[C@H](CCN)NC(=O)[C@H](CCN)NC(=O)[C@H](CC(C)C)NC(=O)[C@@H](Cc2ccccc2)NC(=O)[C@H](CCN)NC1=O)[C@@H](C)O [Compound 46] (Octanoyl-TW[Dab][Dab][dF]L[Dab][Dab]T; lactam 3-C)	>32 µg/mL	>32 µg/mL	>32 µg/mL	32 µg/mL (≈ 27.2 µM)	>32 µg/mL	>32 µg/mL	>32 µg/mL	> 300 µM
CC(C)C[C@@H]1NC(=O)[C@@H](Cc2ccccc2)NC(=O)[C@H](CCN)NC(=O)[C@@H](NC(=O)[C@H](CCN)NC(=O)[C@@H](N)[C@@H](C)O)CCNC(=O)[C@H]([C@@H](C)O)NC(=O)[C@H](CCN)NC(=O)[C@H](CCN)NC1=O [PMBN, polymyxin B nonapeptide, reference compound] (H-T[Dab][Dab][Dab][dF]L[Dab][Dab]T; lactam 3-C (inferred))	>32 µg/mL	>32 µg/mL	>32 µg/mL	>32 µg/mL	>32 µg/mL	2 µg/mL (≈ 2.08 µM)	>32 µg/mL	> 300 µM
CCCCCCCC(=O)N[C@@H](CCN)C(=O)N[C@H](C(=O)N[C@H]1CCNC(=O)[C@H]([C@@H](C)O)NC(=O)[C@H](CCN)NC(=O)[C@H](CCN)NC(=O)[C@H](CC(C)C)NC(=O)[C@@H](Cc2ccccc2)NC(=O)[C@H](CCN)NC1=O)[C@@H](C)O [Compound 9] (Octanoyl-[Dab]T[Dab][Dab][dF]L[Dab][Dab]T; lactam 3-C)	>32 µg/mL	>32 µg/mL	>32 µg/mL	>32 µg/mL	>32 µg/mL	32 µg/mL (≈ 29.4 µM)	>32 µg/mL	79 µM

Reference: publication PMC6384738, “Structure-Function Studies of Polymyxin B Lipononapeptides” (Molecules, 2019)
